The nature of data set [1]: 2,2-diphenyl-1-picrylhydrazyl (DPPH) assay. Conditions: DPPH in ethanol, 515 nm, 25° C. Here is the method:
The unpaired electron results in a strong absorption band at 515 nm, and the solution has a dark-violet colour. In the presence of a free-radical scavenger, the electron is paired, the absorption disappears, and the decoloration proceeds stoichiometrically taking into account the electrons taken up. The absorbance is measured in a photometer. The anti-free-radical property of the substance to be tested is determined by measuring the concentration at which 50% of the 2,2-diphenyl-1-picrylhydrazyl employed has reacted with the free-radical scavenger. This concentration is expressed as EC50, a value which should be regarded as a property of the substance under the given measurement conditions. The substance investigated is compared with a standard (for example tocopherol). The EC50 value here is a measure of the capacity of the respective compound to scavenge free radicals. The lower the EC50 value, the higher the capacity to scavenge free radicals. […] A further important aspect for the action of the antioxidants is the time in which this EC50 value is achieved. This time, measured in minutes, gives the TEC50 value, which allows a conclusion to be drawn on the rate at which these antioxidants scavenge free radicals. […] The unpaired electron results in a strong absorption band at 515 nm, and the solution has a dark-violet colour. In the presence of a free-radical scavenger, the electron is paired, the absorption disappears, and the decoloration proceeds stoichiometrically taking into account the electrons taken up. The absorbance is measured in a photometer. The anti-free-radical property of the substance to be tested is determined by measuring the concentration at which 50% of the 2,2-diphenyl-1-picrylhydrazyl employed have reacted with the free-radical scavenger. This concentration is expressed as EC50, a value which should be regarded as a substance property under the given measurement conditions. The substance investigated is compared with a standard (for example tocopherol). The EC50 value here is a measure of the capacity of the respective compound to scavenge free radicals. The lower the EC50 value, the higher the capacity to scavenge free radicals. […] Various concentrations of the compound to be tested are added to aliquots of this solution. The absorbance is measured in each case at 515 nm, 25° C. and 1 cm. […] The lower this value, the higher the corresponding free-radical-reducing activity. The reaction time needed to achieve this value is indicated in the value TEC50 (in minutes).
For orientation: DPPH is a stable violet radical that fades when it is reduced.

Data set [2] in a line: Oxidation in UV light: change in the UV spectrum on irradiation. In kind it is physicochemical. Conditions: xenon lamp. Here is the method: The curves stand for the unirradiated substance (exposed to 0 kJ/m^2), after irradiation for 15 min (exposure to 86 kJ/m^2), after irradiation for 65 min (exposure to 373 kJ/m^2), after irradiation for 235 min (exposure to 1349 kJ/m^2) and after irradiation for 405 min (exposure to 2325 kJ/m^2).

The nature of data set [3]: Oxidation in UV light in the presence of further antioxidants: beta-carotene emulsions on irradiation. It counts as physicochemical. Conditions: emulsion with 0.5% by weight beta-carotene and 4% by weight compound vs emulsion without compound, UV irradiation for 90 min, n=4.

With `O=C1O[C@H]([C@@H](O)CO)C(O)=C1O` [Ascorbic acid], the “Stability TEC50 (reaction time needed to achieve EC50)” value (from here on “Stability TEC50”) in data set [1] is less than 5 min.

For `O=C1OC(C(O)CO)C(OP(=O)(O)O)=C1O` (stereo not drawn) [Ascorbyl (2-O) phosphate], the “Stability TEC50” value in data set [1] was determined as 1200 min.

Turning to `CCCCC(CC)COC(=O)C(Cc1cc(OC)c(O)c(OC)c1)C(=O)OCC(CC)CCCC` (stereo not drawn) [Hydroxy dimethoxybenzyl malonate, di-2-ethylhexyl 4-hydroxy-3,5-dimethoxy-benzylmalonate], in data set [1], the “Stability TEC50” value stood at 600 min. The “Emax of the UV-A absorption formed on irradiation” value in data set [2] (after UV irradiation, 290-400 nm) is recorded as 320-340 nm. In addition, the “Change in UV absorption in the UV-A region on irradiation” value in data set [2] (after irradiation for 65 min (373 kJ/m^2), 95.69 W/m^2 in the range 290-400 nm, increases further on longer irradiation) is given as “significantly increased UV absorption”. The “Effect on beta-carotene degradation (absorption at Emax 440-480 nm) in emulsion” value in data set [3] is “stabilises the beta-carotene”.

With `CCCCC(CC)COC(=O)C(=Cc1cc(OC)c(O)c(OC)c1)C(=O)OCC(CC)CCCC` (stereo not drawn) [Hydroxy dimethoxybenzylidene malonate, Di-2-ethylhexyl (4-hydroxy-3,5-dimethoxybenzylidene)malonate], in data set [1], the “Stability TEC50” value worked out at 1200 min.

As for `Cc1c(C)c2c(c(C)c1O)CC[C@@](C)(CCC[C@H](C)CCC[C@H](C)CCCC(C)C)O2` [alpha-Tocopherol], the “Stability TEC50” value in data set [1] is 30 min.

`CC(=O)Oc1c(C)c(C)c2c(c1C)CCC(C)(CCC[C@H](C)CCC[C@H](C)CCCC(C)C)O2` (stereo partly drawn) [alpha-Tocopheryl acetate]: in data set [1], the “Stability TEC50” value was found to be 600 min.

(Values after US8106233B2, “Antioxidant compounds” (Merck Patent GmbH, priority 2005, dated 2012).)
